The values below come from paper PMC9401491, “The Novel Nucleoside Analogue ProTide NUC-7738 Overcomes Cancer Resistance Mechanisms In Vitro and in a First-In-Human Phase I Clinical Trial” (Clinical Cancer Research, 2021).

The subject of one series is AGS. Put plainly: MTT cell viability, AGS. Conditions: Homo sapiens, 48 h. It is filed as cell-based. On the procedure: (§1) Cells (10^4) were seeded into 96-well plates and then treated with NUC-7738 (lot 5132/E00393/119) or 3′-dA (cordycepin, catalog no. C3394, lot 067M4182, Sigma) for 48 hours. One and a half milligrams per milliliter MTT (catalog no. M6494, Invitrogen) in a 1:1 ratio was added to cell culture media. After a 2-hour incubation at 37°C, media was removed and 70 μl of isopropanol was added. Optical densities at 570 nm were measured using POLARstar Omega plate reader. Readouts were normalized and IC50 values were calculated using a nonlinear regression model in Graphpad prism (v8.3.0). Each biological replicate (at least 3) was performed in 4 technical replicates to calculate the average IC50 value. To measure apoptosis, the Guava NexinReagent (Luminex Corp.) was used following manufacturer's instructions. Fluorescence staining was measured with an automated 96-well Guava easyCyte Flow Cytometer (Luminex Corp.).

The test system of another series is A498. Description: MTT cell viability, A498. It is filed as cell-based. The following applies: Homo sapiens, A498, 48 h. The method, then:
as §1

A further series relates to CAKI-1. Put plainly: MTT cell viability, CAKI-1. It is filed as cell-based. The following applies: Homo sapiens, CAKI-1, 48 h. The method, then:
as §1

The test system of a further series is NCI-786. Put plainly: MTT cell viability, NCI-786. It is filed as cell-based. The following applies: 48 h. On the procedure:
as §1

Another series concerns 501MEL. Put plainly: MTT cell viability, 501MEL. In kind it is cell-based. The following applies: 48 h. On the procedure: as §1
The next series has as its system Tera-1. Put plainly: MTT cell viability, Tera-1. In kind it is cell-based. The method, then: as §1
The next series deals with SK-OV3. Description: MTT cell viability, SK-OV3. It is filed as cell-based. Conditions: Homo sapiens, SK-OV-3, 48 h. On the procedure: as §1
The next series has as its system HAP1 cells. Description: HAP1 viability with ADA, hENT1 or ADK inhibitors. Conditions: HAP1, EHNA, NBTI, A134974. It is filed as cell-based, human. The method, then: as §1
To assess whether NUC-7738 was resistant to ADA and could bypass ADK and hENT1 (SLC29A1), cell viability was measured after treatment with their specific and corresponding protein inhibitors: erythro-9-(2-Hydroxy-3-nonyl) adenine hydrochloride (EHNA), A134974, and S-(4-nitrobenzyl)-6-thioinosine (NBTI), respectively ([16, 17, 34, 35]).

In the next series the test system is HINT1 KO HAP1 cells. Put plainly: Sensitivity of HINT1 CRISPR/Cas9 knockout HAP1 cells. The following applies: HAP1 polyclonal and clonal HINT1 KO vs WT. In kind it is cell-based, human. The method, then:
Cells were transfected with stealth siRNA (catalog no. HSS104782, catalog no. HSS104784, catalog no. HSS179235; ThermoFisher) targeting HINT-1 using Lipofectamine RNAiMAX (Invitrogen) following the manufacturer's protocol. At 48 hours posttransfection, cells were treated and cell viability was measured 96 hours posttransfection as described above. Samples for Western blot analysis were harvested 48 hours posttransfection. For gene-depletion experiments, approximately 4 × 10^5 HAP1 cells were seeded per well in a 6-well plate and grown to approximately 50% confluency. After 24 hours, cells were transfected with lentiCRISPR v2 plasmid (GenScript) containing a guide RNA (gRNA) targeting gene of interest using Turbofectin (catalog no. TF81001, OriGene) according to manufacturer's instruction. The following sequences were used: HINT-1 CRISPR gRNA 2 ([…]) and NUDT2 CRISPR gRNA 2 ([…]). At 24 hours posttransfection, positively transfected cells were selected using […] puromycin for 72 hours. After selection, surviving colonies were expanded and used for downstream analysis. For clonal selection, clones were selected using limited dilution and expanded into a 6-well plate for Western blot screening.
HAP1 cells were seeded at a density of 10,000 cells per well in 6-well plates and indicated drug concentrations were added. […]

In series [1] the test system is human ccRCC tissue slices. Put plainly: Ex vivo tissue slice culture of clear cell renal carcinoma. In kind it is cell-based. Conditions: 0, 5 and 25 μmol/L, 24 hours. From the text:
A fresh sample of clear cell renal carcinoma (ccRCC) was placed in formalin to serve as a formalin control for our experiment. The sample was transported in precooled 199 medium (catalog no. 2154) supplemented with penicillin/streptomycin (1%), Normocin (0.2%), and Glutamax (2 mmol/L). The tissue sample was embedded in low-melting point agarose gel and sliced into 250-μm sections using a Vibratome VT1000S (Leica Biosystems). Tissue slices were put immediately into media (199 medium supplemented with 10% FBS, 2 mmol/L Glutamax, and 1% penicillin/streptomycin) containing different concentrations of NUC-7738 (0, 5, and 25 μmol/L) and incubated for 24 hours at 37°C. Treated tissue sections were then fixed using PFA for 1 hour at room temperature and stored in PBS at 4°C. The treated slices were later embedded in paraffin and subsequently sliced into 3-μm sections using a microtome. The sections were placed on slides and baked overnight at 40°C. Sections were dewaxed using xylene and rehydrated in a graded alcohol series followed by tap water. […]
Immunofluorescence staining was performed using BOND RX. NF-κB p65 (catalog no. 4764, CST) and cleaved caspase-3 (catalog no. 9661, CST) were detected with HRP-conjugated secondary antibody and visualized using tyramide-fluorophore conjugates (TSA Cy5 for both). […]

The nature of series [2]: NuTide:701 first-in-human phase I study. In kind it is in vivo. On the procedure:
A Safety Study of NUC-7738 in Patients with Advanced Solid Tumours or Lymphoma, ClinicalTrials number: NCT03829254. Approved by Oxford C Ethics Committee ref 18/SC/0628.
This study is currently ongoing at three centers in the United Kingdom: Edinburgh, Newcastle, and Oxford. As of June 1, 2021, 28 patients with advanced cancers have been enrolled and received escalating doses of 14–900 mg/m^2 (intravenous infusion from 30–120 minutes) once weekly until dose-limiting toxicity or disease progression occurs. Intrapatient dose escalation ensures those starting at lower dose levels of NUC-7738 are continuously moved to higher doses once safety has been established. The most common cancers to be included are immunotherapy-resistant melanoma (n = 8), colorectal cancer (n = 3), and gastric and lung cancer (n = 2 each). […] A posttreatment biopsy was taken from a patient with melanoma and compared with their archived specimen collected prior to enrolling in the clinical trial. […] Transcriptional profiling of the specimens using RNA-seq identified more than 1,069 genes which were at least 2-fold differentially expressed after treatment with NUC-7738 (Fig. 6C and Supplementary Fig. S6A–C).

Details of series [3]: method as in PMID 22833171, PMID 24419340. The following applies: rat serum; cited from earlier work.

`C[C@H](NP(=O)(OC[C@@H]1C[C@@H](O)[C@H](n2cnc3c(N)ncnc32)O1)Oc1ccccc1)C(=O)OCc1ccccc1` (stereo partly drawn) [NUC-7738, 3′-deoxyadenosine-5′-O-phenyl-(benzyloxy-L-alaninyl)-phosphate]: the IC50 – broadly, the concentration needed to halve the response being measured – in the series on AGS worked out at 11.2 µM; with A498, 48.5 µM; in the series on CAKI-1, 33 µM; in the series with NCI-786 it was 49.5 µM; in the series on 501MEL, 10.9 µM; in the series on Tera-1 (48 h), 4.36 µM. This molecule returned a concentration for half-maximal inhibition (IC50) with SK-OV3 of 16.6 µM. Also, the “sensitivity to NUC-7738 compared with 3′-dA” value with Tera-1 (Tera-1 teratocarcinoma) is “more than 40 fold”. For the same molecule, the “potency upon inhibition of ADA, hENT1 or ADK” value in the series with HAP1 cells was “mostly unaffected”. Also, in the series on HINT1 KO HAP1 cells, the “sensitivity after depletion of HINT1” value was “markedly reduced sensitivity”. For the same molecule, the “nuclear p65 and tumor-cell apoptosis” value in [1] was “dose-dependent decrease in nuclear p65 and an increase in tumor-cell apoptosis”. Moreover, the tolerability entry in [2] (patients with advanced cancers, 14–900 mg/m^2 iv once weekly) is “well tolerated with no dose-limiting toxicities reported”. For the same molecule, the “plasma PK profile” value in [2] (patients, escalating doses) was “dose-proportional increase in Cmax and AUC”. The half-life in serum entry in series [3] is listed as “less than 2 minutes”.
